Results published in ChEMBL document CHEMBL2429744, “Anticancer activities of an antimicrobial peptide derivative of Ixosin-B amide” (Bioorg Med Chem Lett, 2013).
The source made the active and inactive calls. The calls are words filed in the database; no cut-off is given here. Peptide text beside a SMILES is read from it.

Key:
MCF7 [1] = assay: Antiproliferative activity against human MCF7 cells assessed as cell viability at 100 uM after 48 hrs by MTT assay; format: functional, cell-based
MCF7 [2] = assay: Antimigratory activity against human MCF7 cells assessed as inhibition of wound-healing activity at 5 uM after 48 hrs by phase contrast microscopic analysis relative to untreated control; format: functional
MCF7 [3] = assay: Induction of alpha-tubulin mislocalization in human MCF7 cells assessed as appearance of aggregated protein around nucleus at 5 uM after 24 to 48 hrs by confocal microscopic analysis relative to untreated control; format: functional, cell-based
MCF7 [4] = assay: Inhibition of F-actin structural changes in human MCF7 cells at 25 uM after 24 to 48 hrs using AlexaFluor 488 and TRITC staining by confocal microscopic analysis; format: functional, cell-based
MCF7 [5] = assay: Induction of morphological changes in human MCF7 cells at 1 uM after 24 to 48 hrs by confocal microscopic analysis relative to untreated control; format: functional, cell-based
MCF7 [6] = assay: Induction of cortical alpha-tubulin structural changes in human MCF7 cells at 25 uM after 24 to 48 hrs using AlexaFluor 488 and TRITC staining by confocal microscopic analysis relative to untreated control; format: functional, cell-based
MCF7 [7] = assay: Antimigratory activity against human MCF7 cells assessed as inhibition of wound-healing activity at 1 uM after 24 hrs by phase contrast microscopic analysis relative to untreated control; format: functional, cell-based
MCF7 [8] = assay: Ratio of cytotoxic activity to antimigratory activity against human MCF7 cells; format: functional
MCF7 [9] = assay: Induction of morphological changes in human MCF7 cells assessed as cell shrinkage at 5 uM after 24 to 48 hrs by confocal microscopic analysis relative to untreated control; format: functional, cell-based
MCF7 [10] = assay: Antiproliferative activity against human MCF7 cells assessed as cell viability after 48 hrs by MTT assay; format: functional, cell-based; conditions: MCF7, 48 h
MCF7 [11] = assay: Induction of cell death in human MCF7 cells at 25 uM after 24 hrs; format: cell-based; conditions: mcf7, 24 h

Question: How did the Activity (MCF7 [1]) turn out when `CC(C)C[C@H](NC(=O)[C@H](CCCNC(=N)N)NC(=O)[C@@H](N)CCCCN)C(=O)N[C@@H](CCCNC(=N)N)C(=O)N[C@@H](CCCNC(=N)N)C(=O)N[C@H](C(=O)N[C@@H](Cc1c[nH]c2ccccc12)C(=O)N[C@@H](CCCNC(=N)N)C(=O)N[C@@H](CCCNC(=N)N)C(=O)N[C@@H](Cc1c[nH]c2ccccc12)C(=O)N[C@@H](CCCNC(=N)N)C(N)=O)C(C)C` (H-KRLRRVWRRWR-NH2) was run?
Answer: inactive

Question: What about the inhibition (MCF7 [2]) of the same molecule?
Answer: inactive

Question: Which results are given for `CC(C)C[C@H](NC(=O)[C@H](Cc1c[nH]c2ccccc12)NC(=O)[C@@H](N)CCCCN)C(=O)N[C@@H](CCCNC(=N)N)C(=O)N[C@@H](CCCNC(=N)N)C(=O)N[C@H](C(=O)N[C@@H](Cc1c[nH]c2ccccc12)C(=O)N[C@@H](CCCNC(=N)N)C(=O)N[C@@H](Cc1c[nH]c2ccccc12)C(=O)N[C@@H](Cc1c[nH]c2ccccc12)C(=O)N[C@@H](CCCNC(=N)N)C(N)=O)C(C)C` (H-KWLRRVWRWWR-NH2)?
Answer: Activity (MCF7 [3]): Active; inhibition (MCF7 [4]): Active; Activity (MCF7 [5]): inactive; inhibition (MCF7 [6]): Active; Activity (MCF7 [7]): inactive; Ratio (MCF7 [8]): 10; Activity (MCF7 [9]): Active; IC50 (MCF7 [10]): 61.5 µM; inhibition at 5 µM (MCF7 [2]; MCF7, 48 h): 40%; Activity (MCF7 [11]): Toxic
